The results in this text go back to patent US7196110B2, “N-substituted tricyclic 3-aminopyrazoles as inhibitors for the treatment of cell proliferative disorders” (Janssen Phamaceutica N.V., priority 2002, dated 2007).

The target in series [1] is T1, PDGF-receptor beta enzyme comprising the tyrosine kinase domain (Homo sapiens, UniProt P09619).
T1 construct: from amino acid 545 to 1106 of GenBank Access NO: AAA36427
In words: Inhibition of PDGF-receptor kinase activity (cell-free, PLC1 peptide, 33P Flashplate). The series is classed as biochemical. The settings on record: for inhibition at 10 µM: compound at 10 uM, read-out: Percent Inhibition @ 10 uM. The method, boiled down:
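The IC50 is the inhibitor level halving kinase activity relative to inhibitor-free wells, measured as 33P captured on a streptavidin-bound biotin-PLC1 peptide. The reaction ran 60 min at 30 °C in pH 8 Tris buffer with 1 mM DTT, 5 μM ATP and the 545–1106 kinase-domain enzyme.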

Series [2] addresses c-Abl kinase (Abelson murine leukemia virus, UniProt P00521). In words: Inhibition of c-Abl kinase activity (cell-free, Abl peptide substrate, 33P Flashplate). The series is classed as biochemical. Conditions: IC50 for the c-Abl kinase activity.
Series [3] deals with PDGF-BB-stimulated angiogenesis. As to the kind of experiment: Anti-angiogenesis matrigel mouse model (MM assay) supplemented with PDGF-BB, plug hemoglobin content. The series is classed as in vivo, mice (C57BL/6J). Conditions: mice. An excerpt:
Angiogenesis inhibitory activity of a compound of this invention can be measured in vivo using the matrigel mouse model (MM Assay) of angiogenesis (Passaniti et al., Laboratory Investigation, 67: 519–528, 1992). The matrigel mouse assay is a well-established method to quantify angiogenesis (see e g. Capogrossi et al., Methods in Molecular Medicine, Vascular Disease: Molecular Biology and Gene Therapy Protocols, Edited by: A. H. Baker, Humana Press Inc., Totowa, N.J., 1999). The model has been characterized extensively for its relevance as a mimic of the process of angiogenesis and has been used extensively to evaluate in vivo both potential angiogenic and anti-angiogenic activity of numerous compounds/agents. […] All procedures involving animals were conducted in an animal facility fully accredited by the American Association for Assessment and Accreditation of Laboratory Animal Care (AAALAC) and in accordance with The Guide for the Care and Use of Laboratory Animals (NIH). […]
Normal male mice (C57BL/6J) were injected subcutaneously (ventrally below rib cage at abdominal midline) with 1.0 mL of chilled matrigel supplemented with a single purified pro-angiogenic growth factor (100–500 ng/mL of either rhPDGF-BB (supra), recombinant human basic fibroblast growth factor, rhFGF-basic (R&D System Cat. No 233-FB) or recombinant human vascular endothelial growth factor, rhVEGF (PanVera Cat. No R2951) and heparin (35 U/mL). Compounds are formulated as 0.1% suspensions (1 mg/mL final concentration) in 0.5% methylcellulose. Vehicle or test compounds (8–10 mice per treatment group) were administered orally by gavage beginning two hours after matrigel injections. […] Supernatants were removed and the hemoglobin concentration in the plug extract was measured spectrophotometrically using the Drabkin's assay method (Drabkin's reagent kit 525-A; SIGMA) and read on a Beckman DU 7400 Spectrophotometer. […] Group differences were analyzed statistically using the Mann-Whitney Test, with a p-value of 0.05 or less considered statistically significant. […]

The test system of series [4] is A375 (melanoma). In words: Anti-cell proliferation in tumor cells (14C-thymidine incorporation), A375. The settings on record: Homo sapiens, A-375; read-out: IC50 on cell proliferation, A375. The format is cell-based. The protocol: (§1) The effect of compounds of the invention on cell proliferation in various tumor cells was tested based on incorporation of ^14C-thymidine into DNA of cells.
(§2) Similar to those described above in 3a, except that different cells, cell growth medium, and growth supplements were used. Human tumor cell lines derived from various human tissue origins (LoVo from colon, H460 from lung, T47D from breast, PC3 from prostate, A375 from melanoma, AsPC1 from pancreas) were obtained from the American Type Culture Collection (ATCC) and cultured under specified conditions required for each cell type, as provided by ATCC. Complete medium was obtained from Cellgro: Iscove's medium with 10% Fetal Bovine Serium (FBS) (Mediatech, Inc., Herndon, Va. 20171, Cat. No. 10-016-CV).
(§3) Tumor cells were seeded at approx. 3000–8000 cells per well in a volume of 100 μl of complete medium. Cells were grown for 24 hours in complete medium, and 1 μl of test compound was serially diluted in 100% DMSO and added to each well. For maximum growth control wells, only 1 μl of 100% DMSO was added. After 24 hours incubation, 20 μl of ^14C-thymidine master mix was added to each well and the ^14C-thymidine master mix was pepared according to the following regimen:
(§4) Cells were incubated for an additional 24 hours at 37° C. in medium containing test compound and ^14C-thymidine. Then, the reaction mixture was discarded and the plate was washed 2 times each with 200 μl PBS. Subsequently, each well on the plate was filled with 200 μl of PBS. The top of the plate was sealed with transparent plate sealer and white plate backing sealers were applied to the bottom of plates. The retained ^14C inside each well was measured using a Packard TopCount.
(§5) In order to test the potency of inhibition of the present compound, IC50 of an individual compound on the inhibition of tumor cell line proliferation was measured using the above procedure. As used herein, said IC50 refers to the concentration of the test compound at which the amount of tumor cell proliferation is reduced by one-half as compared to the maximum growth control wells without the compound.
Background: Dividing cells build labelled thymidine or BrdU into new DNA.

The subject of series [5] is LoVo (colon). As to the kind of experiment: Anti-cell proliferation in tumor cells (14C-thymidine incorporation), LoVo. The format is cell-based. Conditions: Homo sapiens, read-out: IC50 on cell proliferation, LoVo. The protocol:
as §1, §2, §3, §4, §5

The test system of series [6] is PC3 (prostate). As to the kind of experiment: Anti-cell proliferation in tumor cells (14C-thymidine incorporation), PC3. The series is classed as cell-based. The settings on record: Homo sapiens, PC-3; read-out: IC50 on cell proliferation, PC3. As to the method: as §1, §2, §3, §4, §5
Series [7] deals with H460 (lung). As to the kind of experiment: Anti-cell proliferation in tumor cells (14C-thymidine incorporation), H460. The format is cell-based. The settings on record: Homo sapiens, NCI-H460; read-out: IC50 on cell proliferation, H460. As to the method: as §1, §2, §3, §4, §5
Series [8] concerns AsPC1 (pancreas). In words: Anti-cell proliferation in tumor cells (14C-thymidine incorporation), AsPC1. The format is cell-based. Conditions: Homo sapiens, ASPC1; read-out: IC50 on cell proliferation, AsPC1. The protocol: as §1, §2, §3, §4, §5
Series [9] has as its system T47D (breast). In words: Anti-cell proliferation in tumor cells (14C-thymidine incorporation), T47D. The series is classed as cell-based. The settings on record: Homo sapiens, read-out: IC50 on cell proliferation, T47D. The protocol:
as §1, §2, §3, §4, §5

A short description of series [10]: Rat pharmacokinetics study of pro-drugs, conversion to parent monitored by HPLC/MS/MS. The series is classed as in vivo. The settings on record: po, rat plasma, 10 mg/kg orally, read-out: Fast PK (0.5 h) conc. Prodrug. As to the method: Furthermore, pro-drugs have been administered orally to rats (10 mg/kg) in pharmacokinetics studies, and the conversion of pro-drugs to the parent compound was montitored by HPLC/MS/MS analyses. Parent compound or the glucuronide conjugates of the parent compound was detected in the rat plasma from the pharmacokinetics studies (Table G).

The mark [11] stands for this setting: PDGF-R kinase activity, read-out: IC50.

Like-named read-outs stand apart in the source and are kept apart here.

The inhibition is the drop in the measured response relative to a control, in per cent.

Sequence of c-Abl kinase (P00521 115-385): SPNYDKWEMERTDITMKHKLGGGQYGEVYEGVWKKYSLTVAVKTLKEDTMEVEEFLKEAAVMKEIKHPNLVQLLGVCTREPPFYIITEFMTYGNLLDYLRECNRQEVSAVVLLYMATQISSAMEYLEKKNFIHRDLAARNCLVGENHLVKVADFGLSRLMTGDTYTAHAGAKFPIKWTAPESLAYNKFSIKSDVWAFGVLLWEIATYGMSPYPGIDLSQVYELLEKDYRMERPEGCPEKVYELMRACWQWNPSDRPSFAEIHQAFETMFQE
T1 sequence (P09619 545-1106): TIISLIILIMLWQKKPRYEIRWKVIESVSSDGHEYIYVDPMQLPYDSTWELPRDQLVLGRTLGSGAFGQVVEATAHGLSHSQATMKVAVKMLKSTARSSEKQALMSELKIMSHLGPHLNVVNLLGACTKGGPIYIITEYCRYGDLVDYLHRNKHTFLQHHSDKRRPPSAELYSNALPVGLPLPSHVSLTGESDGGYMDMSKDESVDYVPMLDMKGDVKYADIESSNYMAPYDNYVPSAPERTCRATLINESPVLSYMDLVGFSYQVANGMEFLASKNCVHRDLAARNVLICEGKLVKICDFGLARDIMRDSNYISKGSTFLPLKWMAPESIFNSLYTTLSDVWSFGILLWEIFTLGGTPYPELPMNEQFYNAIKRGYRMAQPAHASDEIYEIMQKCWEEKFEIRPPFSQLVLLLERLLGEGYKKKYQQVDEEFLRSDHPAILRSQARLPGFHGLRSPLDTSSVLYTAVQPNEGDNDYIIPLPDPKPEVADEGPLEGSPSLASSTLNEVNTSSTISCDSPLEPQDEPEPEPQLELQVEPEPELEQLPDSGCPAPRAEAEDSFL

For `COc1cc2c(cc1OC)-c1n[nH]c(Nc3cccc(C(F)(F)F)c3)c1C2` [Compound 26, (6,7-Dimethoxy-2,4-dihydro-indeno[1,2-c]pyrazol-3-yl)-(3-trifluoromethyl-phenyl)-amine], in [1] (PDGF-R kinase activity), the inhibition at 10 µM is 92%. Moreover, the IC50 in series [1] (setting [11]) is 0.037 µM; in [2], 134 nM. In series [3], the “% Inhibition @ 30 mg/kg po (angiogenesis, MM assay supplemented with PDGF-BB)” value is listed as 42%.
For the molecule `COc1cc2c(cc1OC)-c1c(c(Nc3cccc(Br)c3)nn1C)C2` [Compound 91, (3-Bromo-phenyl)-(6,7-dimethoxy-1-methyl-1,4-dihydro-indeno[1,2-c]pyrazol-3-yl)-amine], the inhibition at 10 µM in [1] (PDGF-R kinase activity) came to 76%. Also, the IC50 stood at 2.97 µM in series [1] (setting [11]), 4 nM in series [4] and 71 nM in [5].
Regarding `CCOc1cccc(Nc2[nH]nc3c2Cc2cc(OCC)c(OCCCO)cc2-3)c1` [Compound 388, 3-[6-Ethoxy-3-(3-ethoxy-phenylamino)-2,4-dihydro-indeno[1,2-c]pyrazol-7-yloxy]-propan-1-ol], the IC50 in [6] turned out to be 4 nM; in series [1] (setting [11]), 0.0367 µM; in series [2], 46 nM; in series [4], 2 nM; in series [7], 6 nM; in series [5], 18 nM. Besides, the values for the IC50 in [8] and in [9] were 155 nM and 3 nM, respectively. Also, the inhibition at 10 µM in series [1] (PDGF-R kinase activity) is 96%.
As for `CCC1c2cc(OC)c(OC)cc2-c2n[nH]c(Nc3cccc(Br)c3)c21` (stereo not drawn) [Compound 420, (3-Bromo-phenyl)-(4-ethyl-6,7-dimethoxy-2,4-dihydro-indeno[1,2-c]pyrazol-3-yl)-amine], the IC50 was determined as 276 nM in series [6]; 0.0524 µM in series [1] (setting [11]); 335 nM in series [2]; 214 nM in series [4]; 4100 nM in series [7]; 3800 nM in series [5]. In addition, the values for the IC50 in series [8] and in [9] were 4300 nM and 822 nM, respectively. Besides, the inhibition at 10 µM in series [1] (PDGF-R kinase activity) came out at 100%.
Take `COc1cc2c(cc1OC)-c1c(c(Nc3cccc(F)c3)nn1C(=O)Oc1ccccc1)C2` [Compound 433, 3-(3-Fluoro-phenylamino)-6,7-dimethoxy-4H-indeno[1,2-c]pyrazole-1-carboxylic acid phenyl ester]: the inhibition at 10 µM in series [1] (PDGF-R kinase activity) was 71%. Also, the IC50 in [1] (setting [11]) came to 0.585 µM. Besides, the concentration at 0.5 h in [10] came out at 60 nM.
Turning to `COCC(=O)n1nc(Nc2cccc(F)c2)c2c1-c1cc(OC)c(OC)cc1C2` [Compound 465, 1-[3-(3-Fluoro-phenylamino)-6,7-dimethoxy-4H-indeno[1,2-c]pyrazol-1-yl]-2-methoxy-ethanone], the inhibition at 10 µM in [1] (PDGF-R kinase activity) came out at 96%. For the same molecule, the values for the IC50 in series [1] (setting [11]) and in series [2] were 0.00673 µM and 51 nM, respectively. Moreover, in [10], the concentration at 0.5 h was 223 nM.
In the case of `COc1cc2c(cc1OC)-c1c(c(Nc3cccc(F)c3)nn1C(=O)OCCOCCOCCO)C2` [Compound 471, 3-(3-Fluoro-phenyl-amino)-6,7-dimethoxy-4H-indeno[1,2-c]pyrazole-1-carboxylic acid 2-[2-(2-hydroxy-ethoxy)-ethoxy]-ethyl ester], the inhibition at 10 µM in series [1] (PDGF-R kinase activity) turned out to be 90.5%. The IC50 in [1] (setting [11]) was 0.135 µM. In addition, the concentration at 0.5 h in series [10] amounted to 0 nM.
With `CNC(=O)n1nc(Nc2cccc(F)c2)c2c1-c1cc(OC)c(OC)cc1C2` [Compound 578, 3-(3-Fluoro-phenylamino)-6,7-dimethoxy-4H-indeno[1,2-c]pyrazole-1-carboxylic acid methylamide], the inhibition at 10 µM in [1] (PDGF-R kinase activity) worked out at 80%. The IC50 in [1] (read-out: IC50 (μM) on PDGF-R kinase activity) was determined as 4.02 µM. In addition, the concentration at 0.5 h in [10] stood at 7800 nM.
